The numbers were not newly measured in paper PMC9663925, “Phase I pharmacokinetic study of an oral, small-molecule MEK inhibitor tunlametinib in patients with advanced NRAS mutant melanoma” (Frontiers in Pharmacology, 2022), which cites them from elsewhere.

The structures appear in SMILES notation. Where two headings read alike, the source gives them in different places.

In general, Tmax refers to the time at which the peak concentration occurs. On to `Cn1cnc2c(F)c(Nc3ccc(Br)cc3Cl)c(C(=O)NOCCO)cc21` [selumetinib], for which, where the note is “ref Adjei et al., 2008”, the Tmax was 1.0 to 3 h.
Regarding `O=C(c1ccc(F)c(F)c1Nc1ccc(I)cc1F)N1CC(O)([C@@H]2CCCCN2)C1` [cobimetinib], the Tmax (ref Rosen et al., 2016) was 2.4 to 3 h.
Take `Cn1cnc2c(F)c(Nc3ccc(Br)cc3F)c(C(=O)NOCCO)cc21` [binimetinib]: the Tmax (ref Bendell et al., 2017) was 1.00 to 3.00 h.
For `CC(=O)Nc1cccc(-n2c(=O)n(C3CC3)c(=O)c3c(Nc4ccc(I)cc4F)n(C)c(=O)c(C)c32)c1` [trametinib], the Tmax (ref Infante et al., 2012) was 1.0 to 2.08 h.
